Several values for one entry are separate records, joined by “and”; a condition that tells them apart may be missing. Equal entries are not always repeated.
Assays:
Type in all cases: in vivo
Cannabis variety A [1] = assay: cannabinoid profile of floral tissue by HPLC after 1-MCP treatment, variety A
Description: (§1) To examine the effect of 1-MCP exposure, six genetic replicates of a first variety of Cannabis (variety ‘A’) and six genetic replicates of a second variety of Cannabis (variety ‘B’) were grown under greenhouse conditions for a period of four weeks, then transferred to growth chamber conditions with a 12 hour photoperiod for three weeks to induce flower formation. Variety A was from a hybrid strain of 15% sativa and 85% indica bred by BC Bud Depot under the strain name Shiatsu. Variety B was from a hybrid strain of 50% sativa and 50% indica bred by Spectrum under the strain name Jack's Girl. Greenhouse conditions and growth chamber conditions are detailed in Table 1. Next, three of the genetic replicates of each variety were treated with 1-MCP via fumigation in a 295 cubic foot growth chamber for 18 hours using a source of the 1-MCP. The source of the 1-MCP was 250 g of a composition comprising 1-MCP in an amount of 2 wt % loaded in activated carbon as a porous adsorbent material. The treatment was initially activated via the addition of 0.07 gallons of liquid water to the composition, which accelerated release of 1-MCP and established an atmosphere within the growth chamber of 36.3 ppm 1-MCP. Twelve days later, the 18-hour 1-MCP treatment was repeated, and the treatment was repeated again the next day. Control groups of each variety were watered and exposed to identical conditions except that they were never fumigated with 1-MCP.
Cannabinoids concentrations were measured in the genetic replicates from variety A and variety B of Example 1 at three time-points: T1—two days before the first treatment with 1-MCP; T2—one week after the first treatment with 1-MCP; and T3—after all 1-MCP treatments, once the genetic replicates had reached full plant maturity. At each timepoint, three samples of floral tissue were collected from each genetic replicate and frozen overnight. To prepare samples of floral tissue for high performance liquid chromatography (HPLC) analysis, frozen floral tissue was ground, extracted in HPLC-grade methanol, and filtered. HPLC was performed on the filtered methanol, providing a cannabinoid profile for each sample of floral tissue.
Analysis of Variance (ANOVA) was performed to evaluate the effect of 1-MCP on cannabinoid content under each set of experimental conditions.

Cannabis variety A [2] = assay: total biomass and flower biomass of dried plants after 1-MCP treatment, variety A
Description: as §1
(§2) To examine the effect of 1-MCP exposure, the genetic replicates from variety A and variety B of Example 1 were measured (i) after plants were dried and (ii) after plants were dried and trimmed, reflecting flower biomass. Measurement (i) provided the total biomass of each genetic replicate, while measurement (ii) provided the mass of consumer-ready product. The drying of the plants was performed by placing the plants into a drying chamber (90° F., 16% relative humidity) for 72 hours prior to measurement and/or trimming.

[3] = system: female Cannabis plants, variety 'A' (Shiatsu, 15% sativa and 85% indica); assay: development of male sex organs / phenotype on female plants after 1-MCP fumigation, variety A
Description: as §1, with “Control groups of each variety were watered and exposed to identical conditions except that they were never fumigated with 1-MCP.” left out

Cannabis variety B [4] = assay: cannabinoid profile of floral tissue by HPLC after 1-MCP treatment, variety B
Description: as §1, with “The treatment was initially activated via the addition of 0.07 gallons of liquid water to the composition, which accelerated release of 1-MCP and established an atmosphere within the growth chamber of 36.3 ppm 1-MCP. Twelve days later, the 18-hour 1-MCP treatment was repeated, and the treatment was repeated again the next day. Control groups of each variety were watered and exposed to identical conditions except that they were never fumigated with 1-MCP.” left out
Cannabinoids concentrations were measured in the genetic replicates from variety A and variety B of Example 1 at three time-points: T1—two days before the first treatment with 1-MCP; T2—one week after the first treatment with 1-MCP; and T3—after all 1-MCP treatments, once the genetic replicates had reached full plant maturity. […]

[5] = system: female Cannabis plants, variety 'B' (Jack's Girl, 50% sativa and 50% indica); assay: development of male sex organs on female plants after 1-MCP fumigation, variety B; settings: for Flower clusters displaying male organs 30 days after treatment 3 (%): 36.3 ppm 1-MCP
Description: as §1
Stamens were not observed in variety ‘A’ genetic replicates or in either control group.

Cannabis variety B [6] = assay: total biomass and flower biomass of dried plants after 1-MCP treatment, variety B
Description: as §1, §2

[7] = Treatment, single specimens, dried and trimmed plants
[8] = Treatment, single specimens, dried plants

## CC1=CC1 [1-MCP, 1-methylcyclopropene]
Cannabis variety A [1]; variety A
  deleterious effects on the overall profile of cannabinoids: no deleterious effects
Cannabis variety A [1]; variety A (FIGS. 9A-C)
  THCA, THCVA and CBGA concentrations, treated versus control (ANOVA): A few statistically significant differences
Cannabis variety A [1]; variety A, mature plants (T3) (FIG. 8)
  total cannabinoid concentration, treated versus control (ANOVA): no statistically significant difference
Cannabis variety A [1]; variety A, timepoint T2, one week after the first treatment (FIG. 8)
  total cannabinoid concentration, treated versus control (ANOVA): statistically significant difference
Cannabis variety A [2]
  deleterious effect on the biomass: did not have a deleterious effect
  increase in flower biomass over the control group: ~10%
  increase in total biomass over the control group: ~22%
Cannabis variety A [2]; Treatment, mean of 3 specimens, control mean 87.6
  Flower Biomass Group Mean: 95.3 g
Cannabis variety A [2]; Treatment, mean of 3 specimens, control mean 105
  Total Biomass Group Mean: 118.3 g
Cannabis variety A [2]; [7]
  Flower Biomass: 98 g and 90 g
Cannabis variety A [2]; [8]
  Total Biomass: 130 g and 120 g and 105 g
[3]; variety A genetic replicates treated with 1-MCP
  staminate growth: Staminate growth was not observed
[3]; variety A, three 1-MCP-treated plants (FIG. 7), none of three controls
  plants observed to have purple leaves: two of three
Cannabis variety B [4]
  deleterious effects on the overall profile of cannabinoids: no deleterious effects
Cannabis variety B [4]; mature plants (T3) (FIG. 8)
  total cannabinoid concentration, treated versus control (ANOVA): no statistically significant difference
[5]; 15 days after final fumigation (FIG. 5)
  stamen growth on female floral tissue: presence of multiple stamens
[5]; 19 days after final fumigation (FIG. 6)
  stamen growth on female floral tissue: multiple stamens
[5]; Plant 1, three 18 h fumigations
  Flower clusters displaying male organs 30 days after treatment 3 (%): 97%
[5]; Plant 2, three 18 h fumigations
  Flower clusters displaying male organs 30 days after treatment 3 (%): 100%
[5]; Plant 3, three 18 h fumigations
  Flower clusters displaying male organs 30 days after treatment 3 (%): 86%
[5]; five days after final fumigation (FIG. 4)
  stamen growth on female floral tissue: further development of stamen growth
[5]; thirty days after the final 1-MCP treatment
  flower clusters displaying staminate growth: 80-100%
[5]; three days after the final fumigation (FIG. 3)
  stamen growth on female floral tissue: stamens were observed
Cannabis variety B [6]
  decrease in flower biomass versus control: ~2%
  decrease in total biomass versus control: ~2%
  deleterious effect on the biomass: did not have a deleterious effect
Cannabis variety B [6]; Treatment, mean of 3 specimens, control mean 102.3
  Flower Biomass Group Mean: 100.3 g
Cannabis variety B [6]; Treatment, mean of 3 specimens, control mean 118.3
  Total Biomass Group Mean: 115.6 g
Cannabis variety B [6]; [7]
  Flower Biomass: 95 g and 106 g and 100 g
Cannabis variety B [6]; [8]
  Total Biomass: 111 g and 121 g and 115 g

From patent US20250072419A1, “SYSTEMS AND METHODS FOR APPLICATION OF ACTIVE INGREDIENTS TO CANNABIS” (Hazel Technologies, Inc., priority 2020, published 2025)
